The record followed here is ChEMBL document CHEMBL6153174, “Design and Synthesis of Novel Deazapurine DNMT 1 Inhibitors with In Vivo Efficacy in DLBCL” (J Med Chem, 2025).

Where only a bound is given, the exact number is not on record here.

The target in the first experiment is DNA (cytosine-5)-methyltransferase 3B (Homo sapiens, UniProt Q9UBC3). Briefly: Inhibition of DNMT3B (unknown origin) at 5 uM preincubated for 15 mins followed by substrate and [3H-SAM] addition and measured after 60 mins by microbeta analysis relative to control. To be noted: time 75.0 min.
For orientation: inhibition means the drop in the measured response relative to a control, in per cent. As to `CC(C)(C)OC(=O)N1CCC(CNc2cc(-c3ccc(F)cc3)cc3c2cnn3CCCN2CCCC2)CC1`, the inhibition is 9.1%.
The same measure, in the same setting: then `CC(C)N1CCC(Nc2nc(N3CCN(C)CC3)nc3c2ccn3CCCN2CCCC2)CC1`, with 4.3%; and `Cc1ccc(-c2cc(NCC3CCN(C(=O)OC(C)(C)C)CC3)c3cnn(CCCN4CCCC4)c3c2)o1`, with 11%.
`CC(C)N1CCC(Nc2nc(N3CCCCC3)nc3c2ncn3CCCN2CCCC2)CC1`: the inhibition came out at 9.9%.
On the same count and under the same terms, then `CN1CCC(Nc2nc(-c3ccccc3)nc3c2ccn3CCCN2CCCC2)CC1`, with 6.6%; and `CN1CCC(Nc2nc(-c3ccc(F)nc3)nc3c2ccn3CCCN2CCOCC2)CC1`, with 0.2%; and `CN1CCN(c2cc(NCC3CCN(C(=O)OC(C)(C)C)CC3)c3cnn(CCCN4CCOCC4)c3c2)CC1`, with 31%.

The target in the next experiment is DNA (cytosine-5)-methyltransferase 1 (Homo sapiens, UniProt P26358). Briefly: Inhibition of DNMT1 (unknown origin) at 5 uM preincubated for 15 mins followed by substrate and [3H-SAM] addition and measured after 60 mins by microbeta analysis relative to control. To be noted: time 75.0 min.
Sequence of DNA (cytosine-5)-methyltransferase 1 (P26358 whole entry): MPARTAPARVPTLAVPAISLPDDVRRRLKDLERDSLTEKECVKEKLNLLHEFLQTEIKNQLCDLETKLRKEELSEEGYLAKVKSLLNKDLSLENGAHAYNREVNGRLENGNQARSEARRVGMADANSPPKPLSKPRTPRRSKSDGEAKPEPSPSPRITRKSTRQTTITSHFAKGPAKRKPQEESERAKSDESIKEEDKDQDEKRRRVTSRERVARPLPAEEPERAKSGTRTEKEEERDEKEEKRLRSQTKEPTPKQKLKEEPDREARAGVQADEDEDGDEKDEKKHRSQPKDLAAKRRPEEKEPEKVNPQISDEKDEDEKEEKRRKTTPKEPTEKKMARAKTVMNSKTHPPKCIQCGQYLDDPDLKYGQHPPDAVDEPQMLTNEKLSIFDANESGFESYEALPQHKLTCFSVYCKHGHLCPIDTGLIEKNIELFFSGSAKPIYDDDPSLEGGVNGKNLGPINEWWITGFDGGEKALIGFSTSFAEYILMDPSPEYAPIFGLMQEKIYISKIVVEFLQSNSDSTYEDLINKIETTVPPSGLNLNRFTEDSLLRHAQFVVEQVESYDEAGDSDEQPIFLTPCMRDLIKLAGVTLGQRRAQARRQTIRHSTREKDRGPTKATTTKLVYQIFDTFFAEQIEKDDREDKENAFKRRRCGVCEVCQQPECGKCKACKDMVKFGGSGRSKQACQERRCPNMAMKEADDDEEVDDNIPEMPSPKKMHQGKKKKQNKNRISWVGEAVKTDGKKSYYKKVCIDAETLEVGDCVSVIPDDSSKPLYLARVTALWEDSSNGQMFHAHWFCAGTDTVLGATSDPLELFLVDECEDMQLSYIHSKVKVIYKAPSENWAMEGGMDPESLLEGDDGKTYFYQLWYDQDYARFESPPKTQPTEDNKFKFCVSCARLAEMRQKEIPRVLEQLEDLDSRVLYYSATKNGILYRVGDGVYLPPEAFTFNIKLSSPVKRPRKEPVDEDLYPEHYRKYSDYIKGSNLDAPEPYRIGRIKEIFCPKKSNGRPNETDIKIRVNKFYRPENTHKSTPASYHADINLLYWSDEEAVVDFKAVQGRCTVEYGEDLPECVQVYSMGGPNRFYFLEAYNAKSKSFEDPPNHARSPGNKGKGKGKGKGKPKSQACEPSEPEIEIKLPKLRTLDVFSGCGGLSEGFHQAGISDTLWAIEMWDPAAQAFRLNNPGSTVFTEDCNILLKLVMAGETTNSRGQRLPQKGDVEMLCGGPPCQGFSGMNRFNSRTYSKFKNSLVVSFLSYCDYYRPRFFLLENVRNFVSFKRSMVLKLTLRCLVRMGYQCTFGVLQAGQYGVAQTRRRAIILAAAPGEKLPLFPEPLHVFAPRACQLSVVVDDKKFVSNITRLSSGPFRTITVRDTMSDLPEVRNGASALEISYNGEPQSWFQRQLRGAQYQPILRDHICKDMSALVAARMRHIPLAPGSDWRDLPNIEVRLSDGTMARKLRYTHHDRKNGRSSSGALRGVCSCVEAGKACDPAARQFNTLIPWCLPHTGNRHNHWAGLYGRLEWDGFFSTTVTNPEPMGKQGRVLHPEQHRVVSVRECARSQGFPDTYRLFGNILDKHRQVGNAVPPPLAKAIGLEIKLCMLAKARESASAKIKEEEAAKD
`Cc1ccc(-c2cc(NCC3CCNCC3)c3cnn(CCCN4CCCC4)c3c2)o1`: the inhibition worked out at 41%.
Still for that read-out and setting: then `Cc1ccc(-c2cc(NCC3CCN(Cc4ccccc4)CC3)c3cnn(CCCN4CCCC4)c3c2)o1`, with 61%; and `CN1CCC(Nc2nc(N3CCCN(C)CC3)nc3c2ccn3CCCN2CCCC2)CC1`, with 31%.
The same measure, in the same setting: then `CN1CCC(Nc2nc(N3CCCC3)nc3c2ccn3CCCN2CCCC2)CC1`, with 25%; and `CC(C)(C)OC(=O)N1CCC(CNc2cc(-c3ccc(F)cc3)cc3c2cnn3CCCN2CCCC2)CC1`, with 32%; and `CC(C)N1CCC(Nc2nc(N3CCN(C)CC3)nc3c2ccn3CCCN2CCCC2)CC1`, with 20%.
Consider `Cc1ccc(-c2cc(NCC3CCN(C(=O)OC(C)(C)C)CC3)c3cnn(CCCN4CCCC4)c3c2)o1`, for which the inhibition stood at 1.6%.
As for `CC(C)N1CCC(Nc2nc(N3CCN(C)CC3)nc3c2ncn3CCCN2CCCC2)CC1`, the inhibition was determined as 17%.
On the same count and under the same terms, then `CC(C)N1CCC(Nc2nc(N3CCCCC3)nc3c2ncn3CCCN2CCCC2)CC1`, with 12%.
Same read-out and setting: the same measure for `CN1CCC(Nc2nc(-c3ccccc3)nc3c2ccn3CCCN2CCCC2)CC1`: 45%.
Same read-out and setting: the same measure for `CN1CCC(Nc2nc(-c3ccc(F)nc3)nc3c2ccn3CCCN2CCOCC2)CC1`: 17%; for `CN1CCN(c2cc(NCC3CCN(C(=O)OC(C)(C)C)CC3)c3cnn(CCCN4CCOCC4)c3c2)CC1`: 98%.

For another experiment, the system named is MV4-11. Briefly: Antiproliferative activity against human MV4-11 cells assessed as inhibition of cell viability measured after 72 hrs by MTT assay. It counts as functional, cell-based. To be noted: MV4-11, 72 h. Background: Tetrazolium assays rely on reduction of a dye to a coloured formazan, in cell work by metabolically active cells.
The IC50 is the concentration that gives 50% inhibition. With `Cc1ccc(-c2cc(NCC3CCNCC3)c3cnn(CCCN4CCCC4)c3c2)o1`, the IC50 amounted to 2.33 µM.
Same read-out and setting: the same measure for `Cc1ccc(-c2cc(NCC3CCN(Cc4ccccc4)CC3)c3cnn(CCCN4CCCC4)c3c2)o1`: 1 µM.
The same measure, in the same setting: then `CN1CCC(Nc2nc(N3CCCN(C)CC3)nc3c2ccn3CCCN2CCCC2)CC1`, with 26 µM; and `CN1CCN(c2cc(NCC3CCN(C(=O)C4CCCC4)CC3)c3cnn(CCCN4CCOCC4)c3c2)CC1`, with 8.67 µM; and `CN1CCC(Nc2nc(N3CCCC3)nc3c2ccn3CCCN2CCCC2)CC1`, with 11 µM.
Still for that read-out and setting: the same measure for `CC(C)(C)OC(=O)N1CCC(CNc2cc(-c3ccc(F)cc3)cc3c2cnn3CCCN2CCCC2)CC1`: 1.21 µM.
Regarding `CC(C)N1CCC(Nc2nc(N3CCN(C)CC3)nc3c2ccn3CCCN2CCCC2)CC1`, the IC50 came out at 2.87 µM.
Still for that read-out and setting: then `Cc1ccc(-c2cc(NCC3CCN(C(=O)OC(C)(C)C)CC3)c3cnn(CCCN4CCCC4)c3c2)o1`, with 1.06 µM; and `CC(C)N1CCC(Nc2nc(N3CCN(C)CC3)nc3c2ncn3CCCN2CCCC2)CC1`, with 8.25 µM; and `CC(C)N1CCC(Nc2nc(N3CCCCC3)nc3c2ncn3CCCN2CCCC2)CC1`, with greater than 100 µM.
The same measure, in the same setting: the same measure for `CN1CCC(Nc2nc(-c3ccccc3)nc3c2ccn3CCCN2CCCC2)CC1`: 6.68 µM; for `CN1CCC(Nc2nc(-c3ccc(F)nc3)nc3c2ccn3CCCN2CCOCC2)CC1`: 10.6 µM; for `CN1CCN(c2cc(NCC3CCN(C(=O)OC(C)(C)C)CC3)c3cnn(CCCN4CCOCC4)c3c2)CC1`: 22.1 µM.

For another experiment, the target named is T1, Histone-lysine N-methyltransferase EHMT2 (Homo sapiens) (UniProt Q96KQ7).
T1 sequence (whole entry): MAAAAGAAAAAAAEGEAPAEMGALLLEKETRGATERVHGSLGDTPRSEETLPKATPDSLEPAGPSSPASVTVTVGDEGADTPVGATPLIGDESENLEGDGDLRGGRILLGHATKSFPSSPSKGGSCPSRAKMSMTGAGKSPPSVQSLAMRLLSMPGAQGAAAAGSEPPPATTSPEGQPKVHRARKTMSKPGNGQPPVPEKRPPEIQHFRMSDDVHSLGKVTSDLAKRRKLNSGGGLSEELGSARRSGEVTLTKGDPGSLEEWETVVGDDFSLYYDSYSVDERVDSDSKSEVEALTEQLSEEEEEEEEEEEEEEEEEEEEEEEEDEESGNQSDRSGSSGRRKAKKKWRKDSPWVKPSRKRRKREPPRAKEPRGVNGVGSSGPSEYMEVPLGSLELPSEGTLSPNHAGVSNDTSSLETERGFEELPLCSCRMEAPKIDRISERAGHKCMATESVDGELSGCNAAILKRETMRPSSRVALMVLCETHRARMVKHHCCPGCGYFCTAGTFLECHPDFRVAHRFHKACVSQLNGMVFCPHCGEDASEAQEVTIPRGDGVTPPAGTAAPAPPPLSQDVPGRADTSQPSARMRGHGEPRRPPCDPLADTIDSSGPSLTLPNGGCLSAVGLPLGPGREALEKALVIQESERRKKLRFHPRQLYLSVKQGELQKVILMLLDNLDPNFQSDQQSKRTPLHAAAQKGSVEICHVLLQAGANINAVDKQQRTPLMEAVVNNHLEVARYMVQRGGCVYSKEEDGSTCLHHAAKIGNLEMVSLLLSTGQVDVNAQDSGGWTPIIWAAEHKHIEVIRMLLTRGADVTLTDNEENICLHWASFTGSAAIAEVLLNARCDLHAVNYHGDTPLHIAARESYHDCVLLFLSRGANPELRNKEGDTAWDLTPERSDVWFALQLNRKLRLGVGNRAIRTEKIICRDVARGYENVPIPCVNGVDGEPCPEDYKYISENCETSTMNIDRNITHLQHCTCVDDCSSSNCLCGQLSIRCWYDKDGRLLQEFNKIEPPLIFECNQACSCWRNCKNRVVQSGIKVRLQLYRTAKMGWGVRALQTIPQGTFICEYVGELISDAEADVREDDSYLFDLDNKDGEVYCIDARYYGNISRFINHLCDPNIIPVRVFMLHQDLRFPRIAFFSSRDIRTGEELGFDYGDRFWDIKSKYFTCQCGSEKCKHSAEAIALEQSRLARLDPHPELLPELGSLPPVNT
Briefly: Inhibition of G9a (unknown origin) at 5 uM preincubated for 15 mins followed by substrate and [3H-SAM] addition and measured after 60 mins by microbeta analysis relative to control. To be noted: time 75.0 min.
As for `Cc1ccc(-c2cc(NCC3CCNCC3)c3cnn(CCCN4CCCC4)c3c2)o1`, the inhibition amounted to 22%.
For the molecule `Cc1ccc(-c2cc(NCC3CCN(Cc4ccccc4)CC3)c3cnn(CCCN4CCCC4)c3c2)o1`, the inhibition came to 14%.
`CN1CCC(Nc2nc(N3CCCN(C)CC3)nc3c2ccn3CCCN2CCCC2)CC1`: the inhibition was 2.9%.
As to `CN1CCC(Nc2nc(N3CCCC3)nc3c2ccn3CCCN2CCCC2)CC1`, the inhibition was found to be 1.3%.
Still for that read-out and setting: then `CC(C)N1CCC(Nc2nc(N3CCN(C)CC3)nc3c2ccn3CCCN2CCCC2)CC1`, with 3.6%; and `Cc1ccc(-c2cc(NCC3CCN(C(=O)OC(C)(C)C)CC3)c3cnn(CCCN4CCCC4)c3c2)o1`, with 12%.
On to `CC(C)N1CCC(Nc2nc(N3CCCCC3)nc3c2ncn3CCCN2CCCC2)CC1`, for which the inhibition came out at 7.6%.
Same read-out and setting: the same measure for `CN1CCC(Nc2nc(-c3ccccc3)nc3c2ccn3CCCN2CCCC2)CC1`: 1.1%.
In the case of `CN1CCC(Nc2nc(-c3ccc(F)nc3)nc3c2ccn3CCCN2CCOCC2)CC1`, the inhibition worked out at 11%.
Still for that read-out and setting: then `CN1CCN(c2cc(NCC3CCN(C(=O)OC(C)(C)C)CC3)c3cnn(CCCN4CCOCC4)c3c2)CC1`, with 10%.

For another experiment, the target named is T2, DNA (cytosine-5)-methyltransferase 3A (Homo sapiens, UniProt Q9Y6K1). As to the kind of experiment: Inhibition of DNMT3A (unknown origin) at 5 uM preincubated for 15 mins followed by substrate and [3H-SAM] addition and measured after 60 mins by microbeta analysis relative to control. Particulars: time 75.0 min.
T2 sequence (Q9Y6K1 whole entry, looked up): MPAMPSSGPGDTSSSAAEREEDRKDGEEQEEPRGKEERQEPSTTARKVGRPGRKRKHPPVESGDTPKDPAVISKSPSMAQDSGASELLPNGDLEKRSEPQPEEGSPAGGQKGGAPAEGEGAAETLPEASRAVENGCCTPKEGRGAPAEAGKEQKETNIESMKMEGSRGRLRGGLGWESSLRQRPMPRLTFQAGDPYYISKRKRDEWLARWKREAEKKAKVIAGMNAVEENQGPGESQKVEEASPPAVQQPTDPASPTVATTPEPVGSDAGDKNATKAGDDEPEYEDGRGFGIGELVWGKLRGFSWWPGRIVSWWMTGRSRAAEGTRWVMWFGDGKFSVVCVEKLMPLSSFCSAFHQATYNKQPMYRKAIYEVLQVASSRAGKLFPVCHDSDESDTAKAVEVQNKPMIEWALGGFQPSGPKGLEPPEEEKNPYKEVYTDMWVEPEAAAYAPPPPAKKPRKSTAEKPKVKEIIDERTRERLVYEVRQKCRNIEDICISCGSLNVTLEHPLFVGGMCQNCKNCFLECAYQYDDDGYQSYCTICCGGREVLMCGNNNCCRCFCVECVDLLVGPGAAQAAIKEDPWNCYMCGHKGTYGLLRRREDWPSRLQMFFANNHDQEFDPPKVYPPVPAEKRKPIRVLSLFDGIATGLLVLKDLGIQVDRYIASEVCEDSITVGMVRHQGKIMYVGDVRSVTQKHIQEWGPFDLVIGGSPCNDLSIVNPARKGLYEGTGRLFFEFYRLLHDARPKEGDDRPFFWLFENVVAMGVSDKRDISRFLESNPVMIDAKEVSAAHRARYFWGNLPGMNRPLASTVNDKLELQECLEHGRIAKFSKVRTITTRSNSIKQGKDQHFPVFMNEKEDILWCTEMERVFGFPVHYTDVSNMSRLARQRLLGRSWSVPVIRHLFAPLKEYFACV
`Cc1ccc(-c2cc(NCC3CCNCC3)c3cnn(CCCN4CCCC4)c3c2)o1`: the inhibition was determined as 20%.
On the same count and under the same terms, the same measure for `Cc1ccc(-c2cc(NCC3CCN(Cc4ccccc4)CC3)c3cnn(CCCN4CCCC4)c3c2)o1`: 25%; for `CN1CCC(Nc2nc(N3CCCC3)nc3c2ccn3CCCN2CCCC2)CC1`: 4.2%.
On the same count and under the same terms, the same measure for `CC(C)(C)OC(=O)N1CCC(CNc2cc(-c3ccc(F)cc3)cc3c2cnn3CCCN2CCCC2)CC1`: 6.8%; for `CC(C)N1CCC(Nc2nc(N3CCN(C)CC3)nc3c2ccn3CCCN2CCCC2)CC1`: 6.6%; for `Cc1ccc(-c2cc(NCC3CCN(C(=O)OC(C)(C)C)CC3)c3cnn(CCCN4CCCC4)c3c2)o1`: 17%.
On the same count and under the same terms, the same measure for `CC(C)N1CCC(Nc2nc(N3CCN(C)CC3)nc3c2ncn3CCCN2CCCC2)CC1`: -6.9%; for `CC(C)N1CCC(Nc2nc(N3CCCCC3)nc3c2ncn3CCCN2CCCC2)CC1`: 4.3%; for `CN1CCC(Nc2nc(-c3ccccc3)nc3c2ccn3CCCN2CCCC2)CC1`: 8.6%.
Consider `CN1CCC(Nc2nc(-c3ccc(F)nc3)nc3c2ccn3CCCN2CCOCC2)CC1`, for which the inhibition was 16%.
Same read-out and setting: then `CN1CCN(c2cc(NCC3CCN(C(=O)OC(C)(C)C)CC3)c3cnn(CCCN4CCOCC4)c3c2)CC1`, with 19%.

For the next experiment, the target named is T2, DNA (cytosine-5)-methyltransferase 3A. As to the kind of experiment: Inhibition of DNMT3A (unknown origin) preincubated for 15 mins followed by substrate and [3H-SAM] addition and measured after 60 mins by microbeta analysis.
Settings: not given
As for `CN1CCC(Nc2nc(N3CCCN(C)CC3)nc3c2ccn3CCCN2CCCC2)CC1`, the IC50 turned out to be 6.17 µM.
Same read-out and setting: the same measure for `CN1CCC(Nc2nc(-c3ccccc3)nc3c2ccn3CCCN2CCCC2)CC1`: 7.36 µM.

The subject of a further experiment is U-937. Briefly: Antiproliferative activity against human U-937 cells assessed as inhibition of cell viability measured after 72 hrs by MTT assay. To be noted: U-937, 72 h. It counts as functional, cell-based.
Take `Cc1ccc(-c2cc(NCC3CCNCC3)c3cnn(CCCN4CCCC4)c3c2)o1`: the IC50 came out at 8.91 µM.
The same measure, in the same setting: then `Cc1ccc(-c2cc(NCC3CCN(Cc4ccccc4)CC3)c3cnn(CCCN4CCCC4)c3c2)o1`, with 1.59 µM; and `CN1CCC(Nc2nc(N3CCCN(C)CC3)nc3c2ccn3CCCN2CCCC2)CC1`, with 43.3 µM.
On the same count and under the same terms, then `CN1CCC(Nc2nc(N3CCCC3)nc3c2ccn3CCCN2CCCC2)CC1`, with 46.3 µM; and `CC(C)(C)OC(=O)N1CCC(CNc2cc(-c3ccc(F)cc3)cc3c2cnn3CCCN2CCCC2)CC1`, with 1.07 µM; and `CC(C)N1CCC(Nc2nc(N3CCN(C)CC3)nc3c2ccn3CCCN2CCCC2)CC1`, with 15.6 µM.
On the same count and under the same terms, the same measure for `Cc1ccc(-c2cc(NCC3CCN(C(=O)OC(C)(C)C)CC3)c3cnn(CCCN4CCCC4)c3c2)o1`: 3.21 µM; for `CC(C)N1CCC(Nc2nc(N3CCN(C)CC3)nc3c2ncn3CCCN2CCCC2)CC1`: 14.2 µM; for `CC(C)N1CCC(Nc2nc(N3CCCCC3)nc3c2ncn3CCCN2CCCC2)CC1`: greater than 100 µM.
Consider `CN1CCC(Nc2nc(-c3ccccc3)nc3c2ccn3CCCN2CCCC2)CC1`, for which the IC50 amounted to 18.2 µM.
On the same count and under the same terms, then `CN1CCC(Nc2nc(-c3ccc(F)nc3)nc3c2ccn3CCCN2CCOCC2)CC1`, with 6.84 µM; and `CN1CCN(c2cc(NCC3CCN(C(=O)OC(C)(C)C)CC3)c3cnn(CCCN4CCOCC4)c3c2)CC1`, with 23.9 µM.
